Source: patent EP0958822A1, “THE OCULAR HYPOTENSIVE ACTIVE COMPOSITIONS” (Lin, Tongho, priority 1996, dated 1998)

System: New Zealand albino rabbits
Assay: IOP recovery after hypertonic saline infusion (ocular hypertensive rabbit model)
Type: in vivo
Conditions: 50 µl instilled in eye
Protocol: 1981, vol 13 pp72-79. New Zealand albino rabbits of either sex were used in the study. A 20 % hypertonic saline solution was infused at the speed of 1 ml […] for 10 minutes through the marginal ear vein with an infusion pump. […] Then the IOP of both eyes were measured with a Tono-Pen XL Tonometer (Mentor, Norwell , MA) at 30 minute and 10 minute intervals before the experiment. At the time of commencement, as well as at 10, 20, 40, 60, and 80 min intervals measurements were taken. Then measurements were repeated at every 30 minute intervals. […] The IOP recovery curve acquired had shifted to the right and below the curve of the controlled group.

## CCN1CCCC1CNC(=O)c1cc(S(N)(=O)=O)ccc1OC (centres unmarked) [Sulpiride]
0.5% drop solution, 20 % hypertonic saline infusion
  IOP recovery time: didn't show a significant ability in decreasing IOP
20% drop solution
  decreasing IOP: it did so when the concentration was raised to 20%
